This note sets out measurements from PMC9973354 (mBio, 2022).

For experiment [1], the system named is PA14 ΔfpvA ΔfpvB ΔfiuA ΔfoxA pHERD20T-fpvB Y432A. As to the kind of experiment: Growth of quadruple mutant expressing FpvB Y432A. The format is cell-based, Pseudomonas aeruginosa. Conditions: 10:90 + 2% arabinose. As to the method:
(§1) Site-directed mutagenesis was used to confirm the docking predictions and to define the molecular determinants for ligand uptake through FpvB (Fig. 4C). We generated 17 single amino acid substitutions in FpvB and expressed each of them in trans in the quadruple ΔfpvA ΔfpvB ΔfiuA ΔfoxA mutant. Their ability to complement growth of the mutant in the presence of ferrichrome and ferrioxamine B and to restore TS susceptibility was assessed. […] The mutant transporters were tagged with a C-terminal FLAG tag to evaluate expression levels. FLAG-tagged FpvB mutants had WT levels of expression except for Y216T and W347V, which were expressed at 140% and 25% of WT, respectively.
(§2) The ΔfpvA ΔfpvB ΔfiuA ΔfoxA mutant was complemented with WT fpvA, fpvB, fiuA, and foxA in trans as controls (Fig. 4E).
(§3) MIC assays were conducted as previously described ([13], [14]). Overnight cultures were grown in LB from a glycerol stock at 37°C with shaking (200 rpm). Subcultures in 10:90 (1:100 dilution) were cultured for 4 h. Cells were adjusted to an optical density at 600 nm (OD600) of 0.1/500 in 10:90. All compounds were serially diluted 2-fold in dimethyl sulfoxide (DMSO) or H2O at 75× the final concentration. […] The next day, the OD600 was determined with a plate reader (Thermo Scientific) and normalized to percent of growth of the vehicle control after subtracting the OD600 from blank media.

The test system of experiment [2] is PA14 ΔfpvA ΔfpvB ΔfiuA ΔfoxA pHERD20T-fpvB Y216T. The experiment in a line: Growth of quadruple mutant expressing FpvB Y216T. Conditions: 10:90 + 2% arabinose. The class given is cell-based, Pseudomonas aeruginosa. As to the method:
as §1, §2, §3

The target in the next experiment is T1, FpvB R648C (Pseudomonas aeruginosa, UniProt A0A0H2ZFZ5, R648C).
T1 sequence (A0A0H2ZFZ5 23-802 R648C): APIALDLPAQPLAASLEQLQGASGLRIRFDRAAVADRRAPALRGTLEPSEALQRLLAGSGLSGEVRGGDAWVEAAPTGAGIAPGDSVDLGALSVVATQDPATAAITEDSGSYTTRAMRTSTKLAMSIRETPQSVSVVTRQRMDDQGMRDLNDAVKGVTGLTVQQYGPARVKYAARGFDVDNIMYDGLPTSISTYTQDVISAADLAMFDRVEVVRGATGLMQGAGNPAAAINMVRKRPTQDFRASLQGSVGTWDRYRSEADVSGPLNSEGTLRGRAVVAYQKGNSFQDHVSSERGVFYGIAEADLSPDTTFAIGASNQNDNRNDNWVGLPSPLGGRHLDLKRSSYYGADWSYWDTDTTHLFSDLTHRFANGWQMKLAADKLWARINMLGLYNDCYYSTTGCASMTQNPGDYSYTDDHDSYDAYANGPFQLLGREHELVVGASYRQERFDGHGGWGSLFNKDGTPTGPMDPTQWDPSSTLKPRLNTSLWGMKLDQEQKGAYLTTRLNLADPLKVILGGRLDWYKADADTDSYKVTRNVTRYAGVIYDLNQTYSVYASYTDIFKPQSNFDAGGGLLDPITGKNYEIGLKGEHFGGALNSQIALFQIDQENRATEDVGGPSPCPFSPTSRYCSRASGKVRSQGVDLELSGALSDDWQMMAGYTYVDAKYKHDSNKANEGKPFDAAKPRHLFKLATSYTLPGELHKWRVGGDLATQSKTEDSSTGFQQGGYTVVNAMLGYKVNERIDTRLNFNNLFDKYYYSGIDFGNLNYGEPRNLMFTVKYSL
The experiment in a line: Whole-cell fluorescence quenching, FpvB R648C in quadruple mutant. Conditions: FpvB R648C in quadruple mutant, two-site model. The class given is binding. As for the experimental part:
Quenching assays with the two xenosiderophores were repeated for the quadruple TBDT mutant expressing WT FpvB, FpvB R191A R648C, or W347V R648C.
Cells were cultured overnight in LB with carbenicillin (200 μg/mL) at 37°C with shaking at 200 rpm. Cells were subcultured (1:200 dilution) in 10:90 plus 2% arabinose for 4 h without carbenicillin at 37°C with shaking at 200 rpm. Cells were harvested by centrifugation for 5 min and 6,000 × g and resuspended in sterile 1× phosphate-buffered saline (PBS) (pH 7.4); 1× PBS was made from a 10× stock (80 g NaCl, 2 g KCl, 26.8 g Na2 HPO4-7H2O, 2.4 g KH2PO4 in 1 L of deionized H2O) with 10 μM Alexa Fluor 594 C5 maleimide for microscopy or fluorescein-5-maleimide for fluorescence quenching and recovery assays and incubated in the dark at room temperature for 30 min on a shaking incubator at 37°C (200 rpm). Excess dye was quenched with 1 mM dithiothreitol (DTT) (Sigma) to stop the reaction. Cells were washed 3× with PBS. For fluorescence recovery assays, cells were incubated with 1× PBS plus 0.4% glucose at 37°C with shaking at 200 rpm. Glucose was prepared as a 20% stock (wt/vol) in 1× PBS and filter sterilized. Cells were spun down and washed 3× with 1× PBS and resuspended in 1× PBS for quenching assays and 1× PBS plus 0.4% glucose for fluorescence recovery assays.
For fluorescence quenching and recovery assays, cells were diluted to an OD600 of 0.1 for both types of assays, and 148 μL was added into wells of a 96-well black plate (Corning). Fluorescence was recorded for 5 min at 1-min intervals at 37°C (BioTek Neo; excitation, 494 nm; emission, 520 nm). After 5 min, 2 μL of each serial dilution for ferrioxamine-Fe^3+, ferrichrome-Fe^3+, and pyoverdine-Fe^3+ or DMSO for vehicle controls was added to each well. Fluorescence was recorded immediately for quenching assays and for 1 h at 1-min intervals for fluorescence recovery assays. Background fluorescence was subtracted from all fluorescence readings and 1-F/F0 was used to calculate the degree of quenching, where F0 is the initial fluorescence. Kd was calculated using GraphPad Prism using a one-site specific binding model or a two-site model. For fluorescence recovery assays, background was subtracted from all fluorescence readings and F/F0 expressed as a percent of control was plotted versus time.

Several values for one entry are separate records, joined by “and”; a condition that tells them apart may be missing. Equal values may be shown once. Read-outs that look alike come from different tables or passages of the source.

With `CC(=O)N(O)CCCCCNC(=O)CCC(=O)N(O)CCCCCNC(=O)CCC(=O)N(O)CCCCCN` [ferrioxamine B], the “growth in the presence of siderophore” value in experiment [1] and in experiment [2] was “prevented growth” in each case. The Kd is 0.178 µM and 0.17 µM on FpvB R648C (read-out: Kd1 (converted)); 660 µM and 600 µM on FpvB R648C (read-out: Kd2 (converted)).
